# Target: T1, GLUT1 (Homo sapiens, UniProt P11166)
# T1 sequence (P11166 1-492): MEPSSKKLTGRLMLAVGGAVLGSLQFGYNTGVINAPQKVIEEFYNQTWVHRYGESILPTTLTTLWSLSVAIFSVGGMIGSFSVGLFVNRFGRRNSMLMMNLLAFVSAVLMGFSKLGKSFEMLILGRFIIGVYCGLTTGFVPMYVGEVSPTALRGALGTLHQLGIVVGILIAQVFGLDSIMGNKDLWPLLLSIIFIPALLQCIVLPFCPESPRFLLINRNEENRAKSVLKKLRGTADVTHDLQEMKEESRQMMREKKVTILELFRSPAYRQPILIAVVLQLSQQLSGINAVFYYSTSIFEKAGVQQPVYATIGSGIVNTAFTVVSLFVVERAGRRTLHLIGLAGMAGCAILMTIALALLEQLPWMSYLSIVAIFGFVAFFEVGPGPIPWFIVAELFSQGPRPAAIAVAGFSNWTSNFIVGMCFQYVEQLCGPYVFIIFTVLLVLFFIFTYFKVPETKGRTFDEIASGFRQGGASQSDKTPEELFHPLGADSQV
# Experiment: Indirect measurement of GLUT1 activity by quantification of intracellular ATP levels (glucose induced ATP increase)
# Format: cell-based
# Set-up: endogenous in cells; host or cells: DLD1 or CHO-K1
# Settings: read-out: IC50 regarding glucose induced ATP increase (GLUT1 inhibition)
# How it was run: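 Intracellular ATP was measured by CellTiter-Glo luminescence as an indirect readout of transport: glucose-driven for GLUT1, fructose-driven for GLUT2. DLD1 or CHO-K1 cells were used alongside an oxidative phosphorylation inhibitor. Beforehand, cells were held overnight in glucose-free 1% FCS medium to deplete ATP.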
row,SMILES,IC50
1,Cc1nn(Cc2ccc(C(=O)N(C)CCO)cc2)c(C)c1NC(=O)c1cc(C(F)(F)F)nc2ccc(Br)cc12 [Example 1186],277 nM
2,CNC(=O)CN(C)C(=O)c1ccc(Cn2nc(C)c(NC(=O)c3cc(C(F)(F)F)nc4ccc(Br)cc34)c2C)cc1 [Example 1187],288 nM
3,COc1cc(C(=O)Nc2c(C(F)(F)F)nn(Cc3ccncc3C#N)c2C)c2ccccc2n1 [Example 1188],290 nM
4,COc1cc(C(=O)Nc2c(C)nn(Cc3ccncc3C#N)c2C)c2ccccc2n1 [Example 1189],310 nM
5,Cc1cccc(CNC(=O)c2ccc(Cn3nc(C)c(NC(=O)c4cc(C(F)(F)F)nc5ccc(Br)cc45)c3C)cc2)c1 [Example 1190],312 nM
6,Cc1nn(Cc2ccc(C(=O)NCCN3CCOCC3)cn2)c(C)c1NC(=O)c1cc(C(F)(F)F)nc2ccc(Br)cc12 [Example 1191],335 nM
7,Cc1nn(Cc2ccc(C(=O)N3CCN(CCO)CC3)cc2)c(C)c1NC(=O)c1cc(C(F)(F)F)nc2ccc(Br)cc12 [Example 1192],339 nM
8,Cc1nn(Cc2ccc(C(=O)NCC3CCOCC3)cc2)c(C)c1NC(=O)c1cc(C(F)(F)F)nc2ccc(Br)cc12 [Example 1193],343 nM
9,Cc1c(NC(=O)c2cc(C(F)(F)F)nc3ccc(Br)cc23)c(C(F)(F)F)nn1Cc1ccc(C(=O)N(C)C)cn1 [Example 1194],363 nM
10,Cc1nn(Cc2ccc(F)cc2)c(C(N)=O)c1NC(=O)c1cc(C(F)(F)F)nc2ccc(Br)cc12 [Example 1197],385 nM
11,Cc1nn(Cc2ccc(C#N)cc2)c(C)c1NC(=O)c1cc(C(F)(F)F)nc2ccc(-c3c(C)noc3C)cc12 [Example 1198],390 nM
12,Cc1c(NC(=O)c2cc(C(F)(F)F)nc3ccc(Br)cc23)c(C(F)(F)F)nn1Cc1ccc(C(=O)N2CCOCC2)cn1 [Example 1200],408 nM
13,Cc1nn(CC2CCN(C(=O)OC(C)(C)C)CC2)c(C)c1NC(=O)c1cc(C(F)(F)F)nc2ccc(Br)cc12 [Example 1201],428 nM
14,COc1cc(C(=O)Nc2c(C)nn(CCc3cccc(F)c3)c2C)c2ccccc2n1 [Example 1202],430 nM
15,CCN(CC)C(=O)c1ccc(Cn2nc(C)c(NC(=O)c3cc(C(F)(F)F)nc4ccc(Br)cc34)c2C)cc1 [Example 1203],433 nM
16,Cc1nn(Cc2ccc(C(=O)NCCC(C)(C)O)cc2)c(C)c1NC(=O)c1cc(C(F)(F)F)nc2ccc(Br)cc12 [Example 1204],436 nM
17,Cc1nn(CC2CNC(=O)O2)c(C)c1NC(=O)c1cc(C(F)(F)F)nc2ccc(Br)cc12 (stereo not shown) [Example 1206],451 nM
18,Cc1nn(Cc2ccc(C(N)=O)cn2)c(C)c1NC(=O)c1cc(C(N)=O)nc2ccc(F)cc12 [Example 1207],477 nM
19,Cc1nn(CC2COc3ccccc3O2)c(C)c1NC(=O)c1cc(C(F)(F)F)nc2ccc(Br)cc12 (stereo not shown) [Example 1208],481 nM
20,Cc1nn(Cc2ccc(C(=O)NCc3cccc(O)c3)cc2)c(C)c1NC(=O)c1cc(C(F)(F)F)nc2ccc(Br)cc12 [Example 1209],502 nM
21,Cc1ccc(CCNC(=O)c2ccc(Cn3nc(C)c(NC(=O)c4cc(C(F)(F)F)nc5ccc(Br)cc45)c3C)cc2)cc1 [Example 1210],572 nM
22,Cc1nn(Cc2ccc(C(=O)NCCC(C)O)cc2)c(C)c1NC(=O)c1cc(C(F)(F)F)nc2ccc(Br)cc12 (stereo not shown) [Example 1211],581 nM
23,Cc1nn(Cc2ccc(C(=O)N3CCN(C)CC3)cc2)c(C)c1NC(=O)c1cc(C(F)(F)F)nc2ccc(Br)cc12 [Example 1212],598 nM
24,CC(=O)N1CCC(Cn2nc(C)c(NC(=O)c3cc(C(N)=O)nc4ccccc34)c2C)CC1 [Example 1213],614 nM
25,Cc1c(NC(=O)c2cc(C(N)=O)nc3ccccc23)c(C(=O)N(C)C)nn1Cc1ccc(F)cc1 [Example 1214],622 nM
26,Cc1nn(Cc2ccc(C(=O)N[C@H]3CCCC[C@@H]3O)cc2)c(C)c1NC(=O)c1cc(C(F)(F)F)nc2ccc(Br)cc12 [Example 1215],649 nM
27,Cc1nn(Cc2ccc(C(=O)NCCC3CCCN3C)cc2)c(C)c1NC(=O)c1cc(C(F)(F)F)nc2ccc(Br)cc12 (stereo not shown) [Example 1216],673 nM

# Stronger by IC50, values ahead:
row,IC50,SMILES
1,126 nM,Cc1nn(Cc2ccc(C(=O)NCc3ccccc3F)cc2)c(C)c1NC(=O)c1cc(C(F)(F)F)nc2ccc(Br)cc12 [Example 1149]
2,128 nM,Cc1nn(Cc2ccc(C(=O)NCCN3CCCCC3)cc2)c(C)c1NC(=O)c1cc(C(F)(F)F)nc2ccc(Br)cc12 [Example 1150]
3,128 nM,Cc1nn(Cc2ccc(C(=O)NCc3ccccc3)cn2)c(C)c1NC(=O)c1cc(C(F)(F)F)nc2ccc(Br)cc12 [Example 1151]
4,132 nM,Cc1nn(Cc2ccc(C(=O)NC[C@@H](O)CO)cc2)c(C)c1NC(=O)c1cc(C(F)(F)F)nc2ccc(Br)cc12 [Example 1152]
5,136 nM,COc1cc(C(=O)Nc2c(C)nn(Cc3cccnc3C#N)c2C)c2ccccc2n1 [Example 1153]
6,139 nM,Cc1nn(Cc2ccc(C(=O)NCc3cnn(C)c3)cc2)c(C)c1NC(=O)c1cc(C(F)(F)F)nc2ccc(Br)cc12 [Example 1154]
7,140 nM,COC(=O)N1CCC(Cn2nc(C)c(NC(=O)c3cc(C(N)=O)nc4ccccc34)c2C)CC1 [Example 1155]
8,149 nM,CC(=O)N1CCC(Cn2nc(C)c(NC(=O)c3cc(C(F)(F)F)nc4ccc(Br)cc34)c2C)CC1 [Example 1156]
9,150 nM,CNC(=O)CCNC(=O)c1ccc(Cn2nc(C)c(NC(=O)c3cc(C(F)(F)F)nc4ccc(Br)cc34)c2C)cc1 [Example 1157]
10,155 nM,Cc1nn(Cc2ccc(C(=O)Nc3ccncn3)cc2)c(C)c1NC(=O)c1cc(C(F)(F)F)nc2ccc(Br)cc12 [Example 1158]
11,160 nM,Cc1nn(Cc2ccc(C(=O)NCC3(C)COC3)cn2)c(C)c1NC(=O)c1cc(C(F)(F)F)nc2ccc(Br)cc12 [Example 1159]
12,161 nM,Cc1nn(Cc2ccc(C(=O)N(C)CCC#N)cc2)c(C)c1NC(=O)c1cc(C(F)(F)F)nc2ccc(Br)cc12 [Example 1160]
13,166 nM,Cc1nn(Cc2ccc(C(=O)NCc3cccc(F)c3)cc2)c(C)c1NC(=O)c1cc(C(F)(F)F)nc2ccc(Br)cc12 [Example 1163]
14,167 nM,Cc1nn(Cc2ccc(C(=O)NC[C@@H]3CCCO3)cc2)c(C)c1NC(=O)c1cc(C(F)(F)F)nc2ccc(Br)cc12 [Example 1164]
15,168 nM,COc1ccc(CCCn2nc(C)c(NC(=O)c3cc(C(F)(F)F)nc4ccc(Br)cc34)c2C)cc1 [Example 1165]
16,171 nM,Cc1nn(Cc2ccc(C(=O)NCCCN(C)C)cc2)c(C)c1NC(=O)c1cc(C(F)(F)F)nc2ccc(Br)cc12 [Example 1167]
17,179 nM,CC(=O)NCCNC(=O)c1ccc(Cn2nc(C)c(NC(=O)c3cc(C(F)(F)F)nc4ccc(Br)cc34)c2C)cc1 [Example 1168]

row,IC50,SMILES
1,182 nM,CC(=O)Nc1ccc2nc(C(F)(F)F)cc(C(=O)Nc3c(C)nn(Cc4ccc(F)cc4)c3C)c2c1 [Example 1169]
2,189 nM,Cc1nn(Cc2ccc(C(=O)NCc3cccnc3)cn2)c(C)c1NC(=O)c1cc(C(F)(F)F)nc2ccc(Br)cc12 [Example 1170]
3,195 nM,COC(=O)N1CCC(Cn2nc(C)c(NC(=O)c3cc(C(F)(F)F)nc4ccc(Br)cc34)c2C)CC1 [Example 1171]
4,198 nM,C=Cc1ccc(Cn2nc(C)c(NC(=O)c3cc(OC)nc4ccccc34)c2C)cc1 [Example 1172]
5,198 nM,Cc1nn(Cc2ccc(C(=O)Nc3ccncc3)cc2)c(C)c1NC(=O)c1cc(C(F)(F)F)nc2ccc(Br)cc12 [Example 1173]
6,203 nM,Cc1nn(Cc2ccc(C(=O)NC(C)(C)C)cc2)c(C)c1NC(=O)c1cc(C(F)(F)F)nc2ccc(Br)cc12 [Example 1174]
7,205 nM,Cc1nn(CC2CCCO2)c(C)c1NC(=O)c1cc(C(F)(F)F)nc2ccc(Br)cc12 (stereo not shown) [Example 1175]
8,208 nM,Cc1ccc2nc(C)cc(C(=O)Nc3c(C)nn(CC4CCOCC4)c3C)c2c1 [Example 1176]
9,221 nM,Cc1c(NC(=O)c2cc(C(F)(F)F)nc3ccc(Br)cc23)c(C(F)(F)F)nn1Cc1ccc(C(=O)NCCN(C)C)cn1 [Example 1177]
10,224 nM,Cc1nn(Cc2ccc(C(=O)NCCCc3ccccc3)cc2)c(C)c1NC(=O)c1cc(C(F)(F)F)nc2ccc(Br)cc12 [Example 1178]
11,228 nM,Cc1nn(Cc2ccc(C(=O)N[C@H](C)CO)cc2)c(C)c1NC(=O)c1cc(C(F)(F)F)nc2ccc(Br)cc12 [Example 1179]
12,231 nM,Cc1nn(Cc2ccc(F)cc2)c(C(=O)N(C)C)c1NC(=O)c1cc(C(F)(F)F)nc2ccc(Br)cc12 [Example 1180]
13,237 nM,COc1cc(C(=O)Nc2c(C)nn(CCc3ccc(F)cc3)c2C)c2ccccc2n1 [Example 1181]
14,238 nM,Cc1nn(Cc2ccc(C(=O)NC3CCCC3)cc2)c(C)c1NC(=O)c1cc(C(F)(F)F)nc2ccc(Br)cc12 [Example 1182]
15,241 nM,COc1ccccc1CNC(=O)c1ccc(Cn2nc(C)c(NC(=O)c3cc(C(F)(F)F)nc4ccc(Br)cc34)c2C)cc1 [Example 1183]
16,242 nM,Cc1nn(CC2CCN(C(=O)OC(C)(C)C)CC2)c(C)c1NC(=O)c1cc(C(N)=O)nc2ccccc12 [Example 1184]
17,247 nM,Cc1nn(Cc2ccc(C(=O)Nc3cccc(C(N)=O)c3)cc2)c(C)c1NC(=O)c1cc(C(F)(F)F)nc2ccc(Br)cc12 [Example 1185]

# Source: patent publication US20170037028A1 (BAYER PHARMA AKTIENGESELLSCHAFT, priority 2013, published 2017)
